From ChEMBL document CHEMBL3046774, “Synthesis and insect antifeedant activity of precocene derivatives with lactone moiety” (2005)
Activity calls are given as the source filed them. No cut-off for these calls is given here.

Tests used:
[1] = tested on: Aphididae; assay: Antifeeding activity against Aphididae (aphids) in compound treated chinese cabbage leaves assessed as settled aphids measured up to 24 hr; assay type: functional, organism-based
[2] = tested on: Leptinotarsa decemlineata; assay: Antifeeding activity against Leptinotarsa decemlineata adults in compound treated wheat wafer disk assessed as total coefficient of deterrence by feeding deterrent activity test; assay type: functional
[3] = tested on: Leptinotarsa decemlineata; assay: Antifeeding activity against Leptinotarsa decemlineata adults in compound treated wheat wafer disk assessed as relative coefficient of deterrence by feeding deterrent activity test; assay type: functional
[4] = tested on: Sitophilus granarius; assay: Antifeeding activity against Sitophilus granarius (granary weevil) adults in compound treated wheat wafer disk assessed as absolute coefficient of deterrence by feeding deterrent activity test; assay type: functional
[5] = tested on: Leptinotarsa decemlineata; assay: Antifeeding activity against Leptinotarsa decemlineata larvaes in compound treated wheat wafer disk assessed as total coefficient of deterrence by feeding deterrent activity test; assay type: functional
[6] = tested on: Leptinotarsa decemlineata; assay: Antifeeding activity against Leptinotarsa decemlineata larvaes in compound treated wheat wafer disk assessed as absolute coefficient of deterrence by feeding deterrent activity test; assay type: functional
[7] = tested on: Leptinotarsa decemlineata; assay: Antifeeding activity against Leptinotarsa decemlineata larvaes in compound treated wheat wafer disk assessed as relative coefficient of deterrence by feeding deterrent activity test; assay type: functional
[8] = tested on: Sitophilus granarius; assay: Antifeeding activity against Sitophilus granarius (granary weevil) adults in compound treated wheat wafer disk assessed as relative coefficient of deterrence by feeding deterrent activity test; assay type: functional
[9] = tested on: Sitophilus granarius; assay: Antifeeding activity against Sitophilus granarius (granary weevil) adults in compound treated wheat wafer disk assessed as total coefficient of deterrence by feeding deterrent activity test; assay type: functional
[10] = tested on: Trogoderma granarium; assay: Antifeeding activity against Trogoderma granarium (khapra beetle) larvaes in compound treated wheat wafer disk assessed as total coefficient of deterrence by feeding deterrent activity test; assay type: functional
[11] = tested on: Trogoderma granarium; assay: Antifeeding activity against Trogoderma granarium (khapra beetle) larvaes in compound treated wheat wafer disk assessed as relative coefficient of deterrence by feeding deterrent activity test; assay type: functional
[12] = tested on: Trogoderma granarium; assay: Antifeeding activity against Trogoderma granarium (khapra beetle ) larvaes in compound treated wheat wafer disk assessed as absolute coefficient of deterrence by feeding deterrent activity test; assay type: functional
[13] = tested on: Tribolium confusum; assay: Antifeeding activity against Tribolium confusum (confused flour beetle) adults in compound treated wheat wafer disk assessed as total coefficient of deterrence by feeding deterrent activity test; assay type: functional
[14] = tested on: Tribolium confusum; assay: Antifeeding activity against Tribolium confusum (confused flour beetle) adults in compound treated wheat wafer disk assessed as relative coefficient of deterrence by feeding deterrent activity test; assay type: functional
[15] = tested on: Tribolium confusum; assay: Antifeeding activity against Tribolium confusum (confused flour beetle) larvaes in compound treated wheat wafer disk assessed as total coefficient of deterrence by feeding deterrent activity test; assay type: functional
[16] = tested on: Tribolium confusum; assay: Antifeeding activity against Tribolium confusum (confused flour beetle) adults in compound treated wheat wafer disk assessed as absolute coefficient of deterrence by feeding deterrent activity test; assay type: functional
[17] = tested on: Tribolium confusum; assay: Antifeeding activity against Tribolium confusum (confused flour beetle) larvaes in compound treated wheat wafer disk assessed as relative coefficient of deterrence by feeding deterrent activity test; assay type: functional
[18] = tested on: Tribolium confusum; assay: Antifeeding activity against Tribolium confusum (confused flour beetle) larvaes in compound treated wheat wafer disk assessed as absolute coefficient of deterrence by feeding deterrent activity test; assay type: functional
[19] = tested on: Leptinotarsa decemlineata; assay: Antifeeding activity against Leptinotarsa decemlineata adults in compound treated wheat wafer disk assessed as absolute coefficient of deterrence by feeding deterrent activity test; assay type: functional

Row | SMILES | Activity [1] | FDI [2] | FDI [3] | FDI [4] | FDI [5] | FDI [6] | FDI [7] | FDI [8] | FDI [9] | FDI [10] | FDI [11] | FDI [12] | FDI [13] | FDI [14] | FDI [15] | FDI [16] | FDI [17] | FDI [18] | FDI [19]
1 | COc1ccc2c(c1)OC(C)(C)C1=C2OC(=O)C1 | Active | 76.8 | 49.2 | 19.7 | 76.7 | 21.7 | 55 | 94.4 | 114.1 | 107.6 | 73.1 | 34.5 | 114.1 | 94.4 | 50.6 | 19.7 | 60.3 | -6.7 | 27.6
2 | COc1cc2c(cc1OC)C1=C(CC(=O)O1)C(C)(C)O2 | inactive | 49.6 | 29.9 | 14.2 | 95.2 | 32.7 | 62.5 | 91.6 | 105.8 | 116.2 | 85 | 31.2 | 105.8 | 91.6 | 149.7 | 14.2 | 90.7 | 59 | 19.7
3 | COc1ccc2c(c1)OC(C)(C)C(CC(=O)O)=C2 | inactive | 94.1 | 70.9 | 1.8 | 98.8 | 35.2 | 63.6 | 95.7 | 97.5 | 108 | 86 | 22 | 97.5 | 95.7 | 80.2 | 1.8 | 86.4 | -6.2 | 23.2
4 | COc1cc2c(cc1OC)OC(C)(C)C(CC(=O)O)=C2 | inactive | 98.1 | 63.7 | 15 | 96.3 | 17.2 | 79.1 | 88.9 | 103.9 | 97.4 | 85.5 | 11.9 | 103.9 | 88.9 | 113.6 | 15 | 73.1 | 40.5 | 34.4
5 | COc1cc2c(cc1OC)[C@@H]1OC(=O)C[C@]1(I)C(C)(C)O2 (racemic) | inactive | 176.2 | 89.1 | 3.9 | 132 | 41.4 | 90.6 | 89.5 | 93.4 | 120.1 | 80.5 | 39.6 | 93.4 | 89.5 | 147.8 | 3.9 | 93.6 | 54.2 | 87.1
6 | COc1ccc2c(c1)OC(C)(C)[C@@]1(I)CC(=O)O[C@@H]21 (racemic) | inactive | 143 | 81.4 | 21.1 | 134.1 | 38.3 | 95.8 | 93.4 | 114.5 | 111.4 | 79.8 | 31.6 | 114.5 | 93.4 | 94.2 | 21.1 | 77.5 | 16.7 | 61.6
7 | COc1cc2c(cc1OC)OC(C)(C)C=C2 [PROCOCENE II] | Active | 116 | 71.8 | 100 | 124.1 | 32.9 | 91.2 | 94.2 | 194.2 | 198.6 | 100 | 98.6 | 194.2 | 94.2 | 165.7 | 100 | 97.1 | 68.6 | 44.2
8 | COc1ccc2c(c1)OC(C)(C)C=C2 [PROCOCENE I] | Active | 115.7 | 73.8 | 55.2 | 164.6 | 77.8 | 86.8 | 83.8 | 139 | 80.1 | 38.3 | 41.8 | 139 | 83.8 | 119.2 | 55.2 | 64.1 | 55.1 | 41.9
